US20230037188A1, “TASTEFUL NATURAL SWEETENER AND FLAVOR” (EPC Natural Products Co., Ltd., priority 2018, published 2023)
“Also recorded” adds a separate entry of the source.

Assays:
[1] = Blind descriptive sensory evaluation by trained tasters of differently prepared Stevia-derived MRPs in beverages and ketchup; format: in vivo; details: added before heating to xylose, phenylalanine and SGA; 150 μl sample per 100 ml
Description: Each sample was added at a concentration of 1500 ppm to freshly prepared lemon juice (squeezed lemons diluted 1:5 with tap water) containing 4% sugar.
Each sample was added at a concentration of 1000 ppm to Felix Ketchup no added sugar (31.12.2019 L8352, 11:48).
Before tasting the tasters discussed the upcoming series of samples and tasted samples with the predetermined attributes (sweetness) with varying intensities to find a common description. Four trained tasters blind taste tested independently all samples of a series. They were allowed to re-taste and prepared notes for sensory attributes perceived including the relative intensity.
In the last step the attributes noted were discussed openly to find an acceptable description. In case that more than 1 taster disagreed with the description, the tasting was repeated.
Before tasting the tasters discussed the upcoming series of samples and tasted samples with the predetermined attributes with varying intensities to find commonality for the description. Four trained tasters blind taste tested independently all samples of a series. They were allowed to re-taste and made notes for the sensory attributes perceived including the relative intensity.
In the last step the attributes noted were discussed openly to find an agreeable description. In case that more than 1 taster disagreed with thedescription, the tasting was repeated. […]

[2] = Sensory evaluation of combinations of EPCalin (Thaumatin), GSGs and SGs and NHDC in water; format: in vivo; details: 4.5 ppm Thaumatin (10 ppm EPCalin) and/or 50 ppm GSGs and SGs, NHDC 1-5 ppm
Description: 4.5 ppm Thaumatin (equivalent to 10 ppm EPCalin) were dissolved in water. Increasing amounts of NHDC (1-5 ppm) were added to the solution and the sensory properties were evaluated.
50 ppm (GSGs and SGs) were dissolved in water. Increasing amounts of NHDC (1-5 ppm) were added to the solution and the sensory properties were evaluated.
50 ppm (GSGs and SGs) and 4.5 ppm Thaumatin (equivalent to 10 ppm EPCalin) were dissolved in water. Increasing amounts of NHDC (1-5 ppm) were added to the solution and the sensory properties were evaluated.
Sweetness intensity was rated on 5-point scale

[3] = Kinetics of reaction (degradation of Phe with Reb-A, Gluc, Xyl, Suc) in dependence of pH-conditions, HPLC/MS; format: physicochemical; details: for % formation from degraded Reb-A: reaction of Phe and Reb-A
Description: Quantitative evaluation was performed using external standardization.

[4] = Assay to test DPPH radical-scavenging activity; details: combinations of amino acids and Reb-A, 100° C., pH 7.8; iron-III reduction and radical scavenging (FIGS. 49, 50)
Description: 1 mg 1,1-Diphenyl-2-picrylhydrazyl radical (DPPH)/ml ethanol, dilution to assay concentration were prepared in ethanol (40 μg/mL); Calibration samples were prepared with Ascorbic acid in a concentration of 0-10 μg/mL; as a negative control sample, water was used.
Samples in aqueous solution were used as such or diluted with water.
A 0.1 ml sample (or calibration standard) was mixed with 3.9 ml solution of DPPH° (100 μMolar) and reacted while protected from light at room temperature for 30 min. Absorbance was determined at 517 nm against ethanol.
10 mM of amino acid and/or 10 mM sugar were dissolved in 10 ml 0.1 mM KH2PO4-buffer, pH=7.8.
The samples were kept at 100° C. in sealed glass vials (Pyrex 15 ml with screw caps) for 0 (before reaction), 2.5 or 5.0 hours. Thereafter the samples were transferred to an ice water bath and cooled down to room temperature. These samples were diluted 1:10 and used for the test assay for anti-oxidant potential.

SMILES: COc1ccc(CCC(=O)c2c(O)cc(O[C@@H]3O[C@H](CO)[C@@H](O)[C@H](O)[C@H]3O[C@@H]3O[C@@H](C)[C@H](O)[C@@H](O)[C@H]3O)cc2O)cc1O [NHDC, Neohesperidin dihydrochalcone]
- taste profile in Redbull sugar free [1]: improved the mouth-feel and harmony of taste impression yielding a substantially improved taste profile
- sweetness, onset, mouth-feel and lingering in words [2]: long lasting lingering; also recorded: boosts the lingering

SMILES: OC[C@H]1OC(O)[C@H](O)[C@@H](O)[C@@H]1O (stereo partly shown) [Glu]
- % degradation ([3]; reaction of Phe and Gluc, pH = 7.0, 1.0 h, 120° C.): 4.6%

SMILES: C=C1C[C@@]23CC[C@H]4[C@@](C)(CCC[C@@]4(C)C(=O)O)[C@@H]2CC[C@]1(O[C@@H]1O[C@H](CO)[C@@H](O)[C@H](O[C@@H]2O[C@H](CO)[C@@H](O)[C@H](O)[C@H]2O)[C@H]1O[C@@H]1O[C@H](CO)[C@@H](O)[C@H](O)[C@H]1O)C3 [Reb-B]
- % formation from degraded Reb-A ([3]; pH = 5.5): 23.1%
- % formation from degraded Reb-A ([3]; pH = 7.0): 22.7%
- % formation from degraded Reb-A ([3]; pH = 8.5): 19.1%

SMILES: C=C1C[C@@]23CC[C@H]4[C@@](C)(CCC[C@@]4(C)C(=O)O[C@@H]4O[C@H](CO)[C@@H](O)[C@H](O)[C@H]4O)[C@@H]2CC[C@]1(O[C@@H]1O[C@H](CO)[C@@H](O)[C@H](O[C@@H]2O[C@H](CO)[C@@H](O)[C@H](O)[C@H]2O)[C@H]1O[C@@H]1O[C@H](CO)[C@@H](O)[C@H](O)[C@H]1O)C3 [Reb-A, Rebaudioside A]
- anti-oxidant properties [4]: substantial anti-oxidant properties
